Laboratory results: article PMC8765293, “Inhibitor-Resistant Mutants Give Important Insights into Candida albicans ABC Transporter Cdr1 Substrate Specificity and Help Elucidate Efflux Pump Inhibition” (Antimicrobial Agents and Chemotherapy, 2022)
In brackets after ≈: the same amount, converted by molar mass. Read-outs that look alike come from different tables or passages of the source.

Legend:
wt Cdr1 ATPase activity = wt Cdr1 ATPase activity (Candida albicans, UniProt Q5ANA3); assay: biochemical; settings: for Vmax of ATPase activity in the presence of inhibitor: CDR1
Sequence of wt Cdr1 ATPase activity (Q5ANA3 whole entry, the tested form may be a part): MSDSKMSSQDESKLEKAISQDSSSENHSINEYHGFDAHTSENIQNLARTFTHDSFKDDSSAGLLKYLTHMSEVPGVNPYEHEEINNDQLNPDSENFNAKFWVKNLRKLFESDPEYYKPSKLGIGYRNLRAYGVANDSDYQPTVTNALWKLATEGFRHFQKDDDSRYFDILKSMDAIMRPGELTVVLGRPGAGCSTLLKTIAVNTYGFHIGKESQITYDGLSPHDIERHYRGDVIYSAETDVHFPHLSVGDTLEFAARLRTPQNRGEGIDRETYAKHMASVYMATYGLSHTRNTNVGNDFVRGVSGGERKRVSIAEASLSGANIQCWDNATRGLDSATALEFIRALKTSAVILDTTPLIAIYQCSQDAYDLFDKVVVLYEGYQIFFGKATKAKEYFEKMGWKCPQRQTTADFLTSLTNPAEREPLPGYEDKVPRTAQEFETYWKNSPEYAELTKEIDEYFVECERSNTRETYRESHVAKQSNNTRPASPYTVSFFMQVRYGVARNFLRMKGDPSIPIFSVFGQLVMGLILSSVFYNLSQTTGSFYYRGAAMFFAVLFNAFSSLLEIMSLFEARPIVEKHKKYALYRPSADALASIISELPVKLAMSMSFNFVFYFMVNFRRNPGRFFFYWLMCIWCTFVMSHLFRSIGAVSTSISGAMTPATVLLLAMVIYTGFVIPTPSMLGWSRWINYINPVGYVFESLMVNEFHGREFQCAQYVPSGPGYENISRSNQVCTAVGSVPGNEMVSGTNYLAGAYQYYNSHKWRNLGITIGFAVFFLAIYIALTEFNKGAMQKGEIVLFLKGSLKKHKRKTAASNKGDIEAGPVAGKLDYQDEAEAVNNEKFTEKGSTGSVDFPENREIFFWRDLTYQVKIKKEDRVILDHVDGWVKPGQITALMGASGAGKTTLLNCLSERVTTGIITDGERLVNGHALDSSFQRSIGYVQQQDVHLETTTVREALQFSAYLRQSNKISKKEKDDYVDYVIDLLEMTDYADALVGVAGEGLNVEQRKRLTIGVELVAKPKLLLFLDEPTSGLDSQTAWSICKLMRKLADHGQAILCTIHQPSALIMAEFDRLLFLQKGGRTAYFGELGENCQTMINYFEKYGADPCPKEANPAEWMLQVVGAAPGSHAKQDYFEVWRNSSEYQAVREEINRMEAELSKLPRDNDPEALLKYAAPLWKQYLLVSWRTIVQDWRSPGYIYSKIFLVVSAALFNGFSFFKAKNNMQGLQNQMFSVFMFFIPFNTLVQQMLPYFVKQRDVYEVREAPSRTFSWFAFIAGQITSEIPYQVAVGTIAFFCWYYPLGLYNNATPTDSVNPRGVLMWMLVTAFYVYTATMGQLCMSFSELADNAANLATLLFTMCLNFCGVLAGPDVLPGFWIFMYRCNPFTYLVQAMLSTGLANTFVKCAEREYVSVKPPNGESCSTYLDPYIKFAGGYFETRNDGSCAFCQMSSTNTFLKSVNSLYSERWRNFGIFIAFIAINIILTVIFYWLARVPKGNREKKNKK

[1] = molecular target: Cdr1-A713P (FLC transport) (Candida albicans, UniProt Q5ANA3, A713P); assay: Agarose diffusion FLC chemosensitization assay; format: cell-based; settings: 0.25× MICFLC, disc
Sequence of Cdr1-A713P (FLC transport) (Q5ANA3 whole entry A713P, the tested form may be a part): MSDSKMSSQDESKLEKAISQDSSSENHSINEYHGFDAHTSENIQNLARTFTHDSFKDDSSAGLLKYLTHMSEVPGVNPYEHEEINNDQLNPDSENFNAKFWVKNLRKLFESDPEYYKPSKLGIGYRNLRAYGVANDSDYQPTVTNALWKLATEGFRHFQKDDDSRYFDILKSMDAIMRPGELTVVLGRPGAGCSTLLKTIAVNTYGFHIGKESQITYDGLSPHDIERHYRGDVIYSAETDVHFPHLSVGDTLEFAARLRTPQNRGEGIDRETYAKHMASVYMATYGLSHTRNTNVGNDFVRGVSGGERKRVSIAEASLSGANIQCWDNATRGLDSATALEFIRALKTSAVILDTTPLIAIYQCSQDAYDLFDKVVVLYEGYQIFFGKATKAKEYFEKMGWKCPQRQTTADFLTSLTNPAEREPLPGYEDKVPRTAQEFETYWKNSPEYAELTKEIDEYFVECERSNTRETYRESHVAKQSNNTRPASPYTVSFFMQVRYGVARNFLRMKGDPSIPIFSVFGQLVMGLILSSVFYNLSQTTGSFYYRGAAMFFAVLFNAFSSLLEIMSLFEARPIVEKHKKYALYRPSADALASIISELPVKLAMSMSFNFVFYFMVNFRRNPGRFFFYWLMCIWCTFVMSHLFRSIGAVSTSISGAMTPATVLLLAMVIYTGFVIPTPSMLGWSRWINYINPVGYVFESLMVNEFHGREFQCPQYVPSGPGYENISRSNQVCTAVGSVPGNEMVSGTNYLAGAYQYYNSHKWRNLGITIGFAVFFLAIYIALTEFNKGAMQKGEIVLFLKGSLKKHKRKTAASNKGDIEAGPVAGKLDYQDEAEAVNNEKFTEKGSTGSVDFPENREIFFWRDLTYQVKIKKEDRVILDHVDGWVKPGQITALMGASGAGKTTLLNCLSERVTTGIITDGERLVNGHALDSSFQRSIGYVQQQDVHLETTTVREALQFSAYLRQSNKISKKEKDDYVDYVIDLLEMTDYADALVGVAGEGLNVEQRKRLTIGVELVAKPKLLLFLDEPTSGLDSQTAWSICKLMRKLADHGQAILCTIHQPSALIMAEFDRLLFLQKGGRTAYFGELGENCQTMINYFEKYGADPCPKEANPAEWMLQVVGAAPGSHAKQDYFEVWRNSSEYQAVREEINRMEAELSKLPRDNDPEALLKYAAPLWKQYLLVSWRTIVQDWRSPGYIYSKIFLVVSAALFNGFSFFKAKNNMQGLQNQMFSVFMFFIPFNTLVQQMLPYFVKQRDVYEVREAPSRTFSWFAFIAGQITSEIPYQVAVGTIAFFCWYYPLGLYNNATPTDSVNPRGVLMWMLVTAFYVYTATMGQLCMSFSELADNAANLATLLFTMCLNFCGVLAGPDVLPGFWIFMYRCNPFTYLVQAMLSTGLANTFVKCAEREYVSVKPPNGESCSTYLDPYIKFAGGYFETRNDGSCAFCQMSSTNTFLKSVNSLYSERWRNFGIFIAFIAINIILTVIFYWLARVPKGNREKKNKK
Procedure: (§1) Compounds were tested for inhibition of FLC transport by yeast strains overexpressing Cdr1 or Cdr1 mutations.

[2] = molecular target: Cdr1-G521R (FLC transport) (Candida albicans, UniProt Q5ANA3, G521R); assay: Agarose diffusion FLC chemosensitization assay; format: cell-based; settings: 0.25× MICFLC, disc
Procedure: as §1

[3] = molecular target: Cdr1-M639I (FLC transport) (Candida albicans, UniProt Q5ANA3, M639I); assay: Agarose diffusion FLC chemosensitization assay; format: cell-based; settings: 0.25× MICFLC, disc
Procedure: as §1

[4] = molecular target: Cdr1-T1355N (FLC transport) (Candida albicans, UniProt Q5ANA3, T1355N); assay: Agarose diffusion FLC chemosensitization assay; format: cell-based; settings: 0.25× MICFLC, disc
Procedure: as §1

[5] = system: AD/pABC3 (empty vector control, sensitive strain); settings: cited from earlier work
[6] = molecular target: wt Cdr1 (FLC efflux of AD/CDR1 cells) (Candida albicans, UniProt Q5ANA3); settings: for lowest MICFLC in the presence of inhibitor: FLC 5 to 640 mg/L tested
Sequence of wt Cdr1 (FLC efflux of AD/CDR1 cells) (Q5ANA3 whole entry): as the sequence (Q5ANA3 whole entry, the tested form may be a part) above

[7] = system: all strains, including AD/pABC3; assay: Liquid MIC of efflux pump inhibitors alone
[8] = molecular target: wt Cdr1 (FLC transport of AD/CDR1 cells) (Candida albicans, UniProt Q5ANA3); assay: Agarose diffusion FLC chemosensitization assay; format: cell-based; settings: inhibitor-only control
Procedure: as §1

[9] = system: AD/pABC3 (empty vector control, sensitive strain)
[10] = system: AD/pABC3 (empty vector control, sensitive strain); assay: microbe, parasite or virus in culture; settings: Saccharomyces cerevisiae, read-out: MIC (drug susceptibility)
[11] = system: AD/CDR1 (AD1-8u- overexpressing wt Cdr1); assay: MIC, modified CLSI M27-A3 broth microdilution; settings: Saccharomyces cerevisiae, read-out: MIC (drug susceptibility)
AD/CDR1-G521R = assay: MIC, modified CLSI M27-A3 broth microdilution
AD/CDR1-M639I = assay: MIC, modified CLSI M27-A3 broth microdilution
AD/CDR1-A713P = assay: MIC, modified CLSI M27-A3 broth microdilution
AD/CDR1-T1355N = assay: MIC, modified CLSI M27-A3 broth microdilution
[12] = Saccharomyces cerevisiae, read-out: MIC (drug susceptibility)

## CC(C)[C@H]1C(=O)O[C@H](C(C)C)C(=O)N(C)[C@@H](C(C)C)C(=O)O[C@H](C(C)C)C(=O)N(C)[C@@H](C(C)C)C(=O)O[C@H](C(C)C)C(=O)N1C [Enniatin B, enniatin B]
Wt Cdr1 ATPase activity
  IC50: 0.18 µM
  Ki: 0.2 ± 0.03 µM
Wt Cdr1 ATPase activity; [I] 0.1 μM
  Vmax of ATPase activity in the presence of inhibitor: 182 nmol/min/mg
Wt Cdr1 ATPase activity; [I] 0.5 μM
  Vmax of ATPase activity in the presence of inhibitor: 98 nmol/min/mg
Wt Cdr1 ATPase activity; wt Cdr1
  type of inhibition of ATPase activity (Lineweaver-Burk): noncompetitive inhibition
[1]
  susceptibility of FLC transport to inhibitor on agar: remained susceptible
[2]
  susceptibility of FLC transport to inhibitor on agar: resistant
[3]
  susceptibility of FLC transport to inhibitor on agar: substantial resistance
[4]
  susceptibility of FLC transport to inhibitor on agar: substantial resistance
[5]
  synergy with the Cdr1 substrates FLC and R6G: no synergy
[6]
  FICI (inhibitor/FLC combination): <0.13
  IC50: 0.16 µM
[6]; CDR1
  lowest inhibitor concentration necessary to achieve the lowest MICFLC: 1.25 µM
  lowest MICFLC in the presence of inhibitor: 5 mg/L
[7]; Saccharomyces cerevisiae, read-out: MIC of inhibitor alone
  MIC: 10 µM

## milbemycin α25
Wt Cdr1 ATPase activity; CDR1 (wt), from Fig. 4, read-out: IC50 for inhibition of Cdr1 ATPase activity
  IC50: 2.8 µM
[1]
  susceptibility of FLC transport to inhibitor on agar: resistant
[2]
  susceptibility of FLC transport to inhibitor on agar: more resistant
[3]
  susceptibility of FLC transport to inhibitor on agar: most resistance
[4]
  susceptibility of FLC transport to inhibitor on agar: most resistance
[8]
  toxicity of inhibitor alone on agar without FLC: slight growth inhibitory zone
[6]
  FICI (inhibitor/FLC combination): <0.02
[6]; CDR1
  lowest inhibitor concentration necessary to achieve the lowest MICFLC: 0.63 µM
  lowest MICFLC in the presence of inhibitor: 5 mg/L
[6]; listed as milbemycin α25
  FICI (inhibitor/FLC combination): 0.02
[6]; read-out: IC50 for inhibition of FLC efflux (MICFLC), CDR1, live whole cells, from Fig. 3B
  IC50: 0.08 µM
[7]; all strains, including AD/pABC3
  MIC of inhibitor alone: > 20 µM

## OC(Cn1cncn1)(Cn1cncn1)c1ccc(F)cc1F [FLC, fluconazole]
Wt Cdr1 ATPase activity
  effect of substrate on ATPase activity: no effect
[9]
  MIC (drug susceptibility): 1 µg/mL (≈ 3.27 µM)
[10]
  MIC: 1.25 µg/mL (≈ 4.08 µM)
[6]
  MICFLC: 640 mg/L
[11]
  MIC: 640 µg/mL (≈ 2090 µM)
AD/CDR1-G521R; G521R, 1 = no change
  Fold-reduced resistance level (MIC) relative to AD/CDR1: 4 fold
AD/CDR1-G521R; [12]
  MIC: 160 µg/mL (≈ 522 µM)
AD/CDR1-M639I; M639I, 1 = no change
  Fold-reduced resistance level (MIC) relative to AD/CDR1: 1 fold
AD/CDR1-M639I; [12]
  MIC: 640 µg/mL (≈ 2090 µM)
AD/CDR1-A713P; A713P, 1 = no change
  Fold-reduced resistance level (MIC) relative to AD/CDR1: 2 fold
AD/CDR1-A713P; [12]
  MIC: 320 µg/mL (≈ 1040 µM)
AD/CDR1-T1355N; [12]
  MIC: 320 µg/mL (≈ 1040 µM)
AD/CDR1-T1355N; T1355N, 1 = no change
  Fold-reduced resistance level (MIC) relative to AD/CDR1: 2 fold
